Source: PubChem BioAssay (NCI)
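Cells were grown in 96-well plates and exposed to each compound for 48 hours at five concentrations; endpoints were interpolated linearly between bracketing concentrations, or set to the highest concentration if not reached. At the TGI there is no net growth.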

Key:
Assay in all cases: NCI tumour cell line growth inhibition, 48 h
NCI/ADR-RES ovarian = system: NCI/ADR-RES ovarian
M14 melanoma = system: M14 melanoma
COLO 205 colon = system: COLO 205 colon
EKVX NSCLC = system: EKVX NSCLC
SK-MEL-2 melanoma = system: SK-MEL-2 melanoma
SK-MEL-5 melanoma = system: SK-MEL-5 melanoma
OVCAR-5 ovarian = system: OVCAR-5 ovarian
HS 578T breast = system: HS 578T breast
SF-295 CNS = system: SF-295 CNS
SF-539 CNS = system: SF-539 CNS
HCC-2998 colon = system: HCC-2998 colon
786-0 renal = system: 786-0 renal
SK-OV-3 ovarian = system: SK-OV-3 ovarian
MALME-3M melanoma = system: MALME-3M melanoma
OVCAR-4 ovarian = system: OVCAR-4 ovarian
HL-60(TB) leukemia = system: HL-60(TB) leukemia
SK-MEL-28 melanoma = system: SK-MEL-28 melanoma
UO-31 renal = system: UO-31 renal
MDA-MB-435 = system: MDA-MB-435

SMILES | TGI (NCI/ADR-RES ovarian) [µM] | TGI (M14 melanoma) [µM] | TGI (COLO 205 colon) [µM] | TGI (EKVX NSCLC) [µM] | TGI (SK-MEL-2 melanoma) [µM] | TGI (SK-MEL-5 melanoma) [µM] | TGI (OVCAR-5 ovarian) [µM] | TGI (HS 578T breast) [µM] | TGI (SF-295 CNS) [µM] | TGI (SF-539 CNS) [µM] | TGI (HCC-2998 colon) [µM] | TGI (786-0 renal) [µM] | TGI (SK-OV-3 ovarian) [µM] | TGI (MALME-3M melanoma) [µM] | TGI (OVCAR-4 ovarian) [µM] | TGI (HL-60(TB) leukemia) [µM] | TGI (SK-MEL-28 melanoma) [µM] | TGI (UO-31 renal) [µM] | TGI (MDA-MB-435) [µM]
CCOP1(=O)C=C(Sc2ccc([N+](=O)[O-])cc2[N+](=O)[O-])C(C)(C)O1 (centres undefined) | > 76.5 | 24.5 | 23.9 | 18.8 | 35.3 | 23 | 43.4 | > 78.8 | 40.8 | 27.5 | 39.7 | 23.6 | 66.2 | 31.4 | 28.9 | 77.3 | 32 | 28.3 | 28.5
C(=Nc1ccc(-c2cc(-c3ccccc3)nc3ccc4ccccc4c23)cc1)c1ccccc1 | > 100 | 50.4 | 42.6 | 92.8 |  | 42.3 | > 100 | 68.6 | 48.8 | 66.3 | 26.6 | > 100 | > 100 | > 100 | 13.5 | > 100 | > 100 | 73.1 | 55.5
CCCCCCCCCCCCCCCCCCNc1ccn(C2OC(CO)C(O)C2O)c(=O)n1 (centres undefined) | > 100 | > 100 | > 100 | > 100 | > 100 | > 100 | > 100 | > 100 | > 100 | > 100 | > 100 | > 100 | > 100 | > 100 | > 100 | 13.6 | > 100 | > 100 | > 100
COc1ccc(N=Nc2ccc3oc(=O)c(C(=O)Nc4ccccc4)cc3c2)cc1 | > 10 | > 10 | > 10 | > 10 | > 10 | > 10 | > 10 | > 10 | > 10 | > 10 | > 10 | > 10 | > 10 | > 10 | > 10 | > 10 | > 10 | > 10 | > 10
CCCCn1cnnc1NS(=O)(=O)c1cc(C)c(Cl)cc1SCC(=O)O | > 10 | > 10 | > 10 | > 10 | > 10 | > 10 | > 10 | > 10 | > 10 | > 10 | > 10 | > 10 | > 10 | > 10 | > 10 | > 10 | > 10 | > 10 | > 10
COc1cc(C[C@H]2C(=O)OC[C@@H]2Cc2ccc(OC)c(OC)c2)cc(OC)c1 | > 100 | > 100 | > 100 | > 100 | > 100 | 54.5 | > 100 | > 100 | > 100 | > 100 | > 100 | > 100 | > 100 | > 100 | > 100 | 77.1 | > 100 | > 100 | > 100
C#CCOCn1ccc(=O)[nH]c1=O | > 100 | > 100 | > 100 | > 100 | > 100 | > 100 | > 100 | > 100 | > 100 | > 100 | > 100 | > 100 | > 100 | > 100 | > 100 | > 100 | > 100 | > 100 | > 100
CN=CN(C)c1c2ccccc2nc2ccccc12 | > 100 | > 100 | > 100 | > 100 | > 100 | > 100 | > 100 | > 100 | > 100 | > 100 | > 100 | > 100 | > 100 | > 100 | > 100 | > 100 | > 100 | 28.1 | > 100
Cc1cnc(/N=c2\sc(C)cn2-c2ncc(C)s2)s1 | > 100 | > 100 | > 100 | > 100 |  | > 100 | > 100 | > 100 | > 100 | > 100 | > 100 | > 100 | > 100 | > 100 | > 100 | > 100 | > 100 | > 100 | > 100
